Data taken from patent US9593121B2, “Indole substituted pyrrolopyrimidinyl inhibitors of Uba6” (Millennium Pharmaceuticals, Inc., priority 2012, dated 2017).
Structures can show the parent of a compound that is named as a salt.

Target: recombinant human his-UBA6 enzyme (Homo sapiens (Human), UniProt A0AVT1)
Assay: UBA6 AlphaScreen Assay
Assay type: biochemical
Settings: for inhibition at 0.123 µM: compound at 0.123 μM
Protocol: UBA6 AlphaScreen® Assay. The UBA6 enzmatic reaction totals 20 μL and contains 50 mM HEPES (pH 7.5), 0.05% BSA, 0.02% Tween 20, 0.1 mM TCEP, 5 mM MgCl2, 2 μM ATP, 60 nM Flag-Ubiquitin, 20 nM Biotin-his-Use1, and 0.15 nM recombinant human his-UBA6 enzyme. The enzymatic reaction mixture, with and without compound inhibitor, is incubated at 24° C. for 90 minutes in a 384 well plate before termination with 10 μL of Stop/Detection buffer (50 mM HEPES (pH 7.5), 0.05% BSA, 0.02% Tween 20, 0.1 mM TCEP, 20 mM EDTA, 30 μg/ml anti-FLAG Acceptor beads (Perkin Elmer), and 6 μg/mL streptavidin donor beads (Perkin Elmer). After incubation for 2 hours at 24° C. in a dark room, quantification of the AlphaScreen signal is performed on the Pherastar™ (BMG).

Sequence of recombinant human his-UBA6 enzyme (A0AVT1 whole entry): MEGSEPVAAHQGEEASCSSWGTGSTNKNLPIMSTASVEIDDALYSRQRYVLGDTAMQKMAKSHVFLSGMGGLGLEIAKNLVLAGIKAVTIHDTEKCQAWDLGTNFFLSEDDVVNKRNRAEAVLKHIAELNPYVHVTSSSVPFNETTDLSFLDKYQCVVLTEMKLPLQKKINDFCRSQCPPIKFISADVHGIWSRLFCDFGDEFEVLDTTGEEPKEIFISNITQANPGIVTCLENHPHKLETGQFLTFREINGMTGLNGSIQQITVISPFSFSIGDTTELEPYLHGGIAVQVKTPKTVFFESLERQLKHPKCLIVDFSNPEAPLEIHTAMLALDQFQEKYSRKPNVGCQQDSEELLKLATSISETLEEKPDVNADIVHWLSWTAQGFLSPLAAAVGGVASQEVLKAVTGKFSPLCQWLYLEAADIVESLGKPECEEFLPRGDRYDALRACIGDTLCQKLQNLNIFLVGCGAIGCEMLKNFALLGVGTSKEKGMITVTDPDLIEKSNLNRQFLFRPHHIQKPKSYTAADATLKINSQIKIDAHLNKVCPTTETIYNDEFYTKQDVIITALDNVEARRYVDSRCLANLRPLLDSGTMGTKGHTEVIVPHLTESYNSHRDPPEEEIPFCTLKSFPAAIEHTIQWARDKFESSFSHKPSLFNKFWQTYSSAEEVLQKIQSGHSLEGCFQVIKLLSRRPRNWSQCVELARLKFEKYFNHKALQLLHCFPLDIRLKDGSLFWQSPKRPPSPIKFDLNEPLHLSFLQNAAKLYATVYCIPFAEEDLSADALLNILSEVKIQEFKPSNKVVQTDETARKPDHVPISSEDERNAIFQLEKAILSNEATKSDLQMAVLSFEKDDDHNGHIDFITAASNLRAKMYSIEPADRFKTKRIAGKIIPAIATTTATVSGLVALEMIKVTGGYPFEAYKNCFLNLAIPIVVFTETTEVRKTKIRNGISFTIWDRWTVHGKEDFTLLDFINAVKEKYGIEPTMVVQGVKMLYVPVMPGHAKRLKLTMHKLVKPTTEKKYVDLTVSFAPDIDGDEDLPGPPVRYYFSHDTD

IC50 | inhibition at 0.123 µM | inhibition at 1.11 µM (compound at 1.11 μM (footnote ‡)) | Structure (SMILES)
≤ 50 nM | 87% |  | NS(=O)(=O)OC[C@@H]1C[C@@H](n2ccc3c(-c4cc5ccccc5[nH]4)ncnc32)C[C@@H]1O [Compound I-01, ((1S,2S,4R)-4-(4-(1H-indol-2-yl)-7H-pyrrolo[2,3-d]pyrimidin-7-yl)-2-hydroxycyclopentyl)methyl sulfamate HCl]
50 to 2000 nM | 5.9% |  | Cn1c(-c2ncnc3c2ccn3[C@@H]2C[C@@H](COS(N)(=O)=O)[C@@H](O)C2)cc2ccccc21 [Compound I-02, {(1S,2S,4R)-2-hydroxy-4-[4-(1-methyl-1H-indol-2-yl)-7H-pyrrolo[2,3-d]pyrimidin-7-yl]cyclopentyl}methyl sulfamate HCl]
≤ 50 nM | 93% |  | COc1ccc2[nH]c(-c3ncnc4c3ccn4[C@@H]3C[C@@H](COS(N)(=O)=O)[C@@H](O)C3)cc2c1 [Compound I-03, {(1S,2S,4R)-2-hydroxy-4-[4-(5-methoxy-1H-indol-2-yl)-7H-pyrrolo[2,3-d]pyrimidin-7-yl]cyclopentyl}methyl sulfamate]
≤ 50 nM | 91% |  | NS(=O)(=O)OC[C@@H]1C[C@@H](n2ccc3c(-c4cc5ccc(Cl)cc5[nH]4)ncnc32)C[C@@H]1O [Compound I-04, {(1S,2S,4R)-4-[4-(6-chloro-1H-indol-2-yl)-7H-pyrrolo[2,3-d]pyrimidin-7-yl]-2-hydroxycyclopentyl}methyl sulfamate]
≤ 50 nM | 86% |  | N#Cc1ccc2cc(-c3ncnc4c3ccn4[C@@H]3C[C@@H](COS(N)(=O)=O)[C@@H](O)C3)[nH]c2c1 [Compound I-05, {(1S,2S,4R)-4-[4-(6-cyano-1H-indol-2-yl)-7H-pyrrolo[2,3-d]pyrimidin-7-yl]-2-hydroxycyclopentyl}methyl sulfamate]
≤ 50 nM | 88% |  | Cc1ccc2cc(-c3ncnc4c3ccn4[C@@H]3C[C@@H](COS(N)(=O)=O)[C@@H](O)C3)[nH]c2c1 [Compound I-06, {(1S,2S,4R)-2-hydroxy-4-[4-(6-methyl-1H-indol-2-yl)-7H-pyrrolo[2,3-d]pyrimidin-7-yl]cyclopentyl}methyl sulfamate]
≤ 50 nM | 90% |  | COc1ccc2cc(-c3ncnc4c3ccn4[C@@H]3C[C@@H](COS(N)(=O)=O)[C@@H](O)C3)[nH]c2c1 [Compound I-07, {(1S,2S,4R)-2-hydroxy-4-[4-(6-methoxy-1H-indol-2-yl)-7H-pyrrolo[2,3-d]pyrimidin-7-yl]cyclopentyl}methyl sulfamate]
≤ 50 nM | 74% |  | Cc1nc(-c2cc3ccccc3[nH]2)c2ccn([C@@H]3C[C@@H](COS(N)(=O)=O)[C@@H](O)C3)c2n1 [Compound I-08, {(1S,2S,4R)-2-hydroxy-4-[4-(1H-indol-2-yl)-2-methyl-7H-pyrrolo[2,3-d]pyrimidin-7-yl]cyclopentyl}methyl sulfamate HCl]
50 to 2000 nM | 49% |  | NS(=O)(=O)OC[C@@H]1C[C@@H](n2ccc3c(-c4cc5cc(F)c(Cl)cc5[nH]4)ncnc32)C[C@@H]1O [Compound I-09, {(1S,2S,4R)-4-[4-(6-chloro-5-fluoro-1H-indol-2-yl)-7H-pyrrolo[2,3-d]pyrimidin-7-yl]-2-hydroxycyclopentyl}methyl sulfamate]
50 to 2000 nM |  | 26% | COc1ccc2cc(-c3ncnc4c3ccn4[C@@H]3C[C@@H](COS(N)(=O)=O)[C@@H](O)C3)n(C(=O)OC(C)(C)C)c2c1 [Compound I-10, tert-butyl 2-(7-{(1R,3S,4S)-3-hydroxy-4-[(sulfamoyloxy)methyl]cyclopentyl}-7H-pyrrolo[2,3-d]pyrimidin-4-yl)-6-methoxy-1H-indole-1-carboxylate]
50 to 2000 nM | 61% |  | NS(=O)(=O)OC[C@@H]1C[C@@H](n2ccc3c(-c4cc5cc(F)ccc5[nH]4)ncnc32)C[C@@H]1O [Compound I-11, {(1S,2S,4R)-4-[4-(5-fluoro-1H-indol-2-yl)-7H-pyrrolo[2,3-d]pyrimidin-7-yl]-2-hydroxycyclopentyl}methyl sulfamate]
50 to 2000 nM | 12% |  | COc1cccc2cc(-c3ncnc4c3ccn4[C@@H]3C[C@@H](COS(N)(=O)=O)[C@@H](O)C3)[nH]c12 [Compound I-12, {(1S,2S,4R)-2-hydroxy-4-[4-(7-methoxy-1H-indol-2-yl)-7H-pyrrolo[2,3-d]pyrimidin-7-yl]cyclopentyl}methyl sulfamate]
50 to 2000 nM | 16% |  | Cc1c(-c2ncnc3c2ccn3[C@@H]2C[C@@H](COS(N)(=O)=O)[C@@H](O)C2)[nH]c2ccccc12 [Compound I-13, {(1S,2S,4R)-2-hydroxy-4-[4-(3-methyl-1H-indol-2-yl)-7H-pyrrolo[2,3-d]pyrimidin-7-yl]cyclopentyl}methyl sulfamate]

Structure (SMILES) | IC50 | inhibition at 0.123 µM | inhibition at 1.11 µM (compound at 1.11 μM (footnote ‡))
NS(=O)(=O)OC[C@@H]1C[C@@H](n2ccc3c(-c4cc5ccc(C(F)(F)F)cc5[nH]4)ncnc32)C[C@@H]1O [Compound I-14, [(1S,2S,4R)-2-hydroxy-4-{4-[6-(trifluoromethyl)-1H-indol-2-yl]-7H-pyrrolo[2,3-d]pyrimidin-7-yl}cyclopentyl]methyl sulfamate] | 50 to 2000 nM | 32% | 
